Marks after values point to notes of the source that are not given here.
Assays:
S. typhi [1] = assay: Irradiation sensitivity of S. typhi in chicken breast; format: cell-based, Salmonella typhi (ATCC 19430)
E. coli [2] = assay: Irradiation sensitivity of E. coli in chicken breast; format: cell-based, Escherichia coli (ATCC 25922); details: trans-cinnamaldehyde 0.050%, thymol 0.038%, tetrasodium pyrophosphate 0.003%, carvacrol 0.029%
E. coli [3] = assay: MIC (D10 %) of active compounds in ground beef, E. coli; format: cell-based, Escherichia coli (ATCC 25922); details: non-irradiated ground beef, 10^5 CFU/g, stored at 4° C. for 24 hours; % w/w or v/w
Procedure: (§1) Escherichia coli (ATCC 25922) and Salmonella typhi (ATCC 19430) were obtained from the American Type Culture Collection (Rockville, Md., USA) and maintained at −80° C. in Tryptic Soy Broth (TSB; Difco Laboratory, Detroit, Mich.) containing glycerol (10%; v/v). Before each experiment, stock cultures were subcultured through two consecutive 24 h growth cycles in TSB at 35° C. to obtain working cultures containing approximately 10^9 UCF/ml for E. coli and S. typhi.
(§2) Samples were homogenised for 2 min in sterile peptone water (0.1%) using a Lab-blender 400 stomacher (Laboratory Equipment, London, UK). From this mixture, serial dilutions were prepared and appropriate ones were pour-plated in tryptic soy agar (TSA) (Difco, Laboratories, Detroit, Mich., USA) and incubated at 35° C., 24 hours for the numeration of E. coli and S. typhi.
(§3) D10 deteriiination: The kinetics of bacteria destruction by irradiation with or without the active compounds and under different packaging conditions was evaluated by linear regression. Bacterial counts (log CFU/ml) were plotted against irradiation doses or compound concentrations and the D10 values were calculated using SigmaPlot program. Statistical analysis was done using SPSS program. The Duncan test was used with a probability of 0.05.
(§4) The MIC values for the active compounds were determined on the basis of their antibacterial effectiveness in meat. Concentrations retained were those to reduce by 1 log CFU the population of E. coli or S. typhi in ground beef. Ground beef samples weighing 200 g were contaminated with working cultures of E. coli or S. typhi to obtain a final concentration of 10^5 CFU/g. The ground beef samples containing micro-organisms was mixed during 3 minutes at medium speed in a 4L-conmmercial blender (Waring Products, New Hartford, Col., USA) and different concentrations of the active compounds were incorporated, followed by another 3 minutes period mixing. Sterile petri plates (60×15 mm) were filled with ground beef samples containing micro-organisms and different concentrations of active compounds in portion of 25 g each and stored at 4° C. for 24 hours.
(§5) In addition to the above compounds, minimal concentrations of different types of commercial Herbalox® and Duralox® required to reduce by 1 log the bacterial population of E. coli in ground beef were evaluated. […] However, an estimation of the minimal concentration was calculated using the slope of the curve.

S. typhi [4] = assay: MIC (D10 %) of active compounds in ground beef, S. typhi; format: cell-based, Salmonella typhi (ATCC 19430); details: non-irradiated ground beef, 10^5 CFU/g, stored at 4° C. for 24 hours; % w/w or v/w
Procedure: as §1, §2, §3, §4, §5

E. coli [5] = assay: Irradiation sensitivity (D10) of E. coli in ground beef; format: cell-based, Escherichia coli (ATCC 25922)
S. typhi [6] = assay: Irradiation sensitivity (D10) of S. typhi in ground beef; format: cell-based, Salmonella typhi (ATCC 19430)
[7] = test system: Six pathogenic and spoilage bacteria, commonly found in meat and meat products; assay: MIC in artificial culture media (1 log reduction); format: cell-based
Procedure: The concentration ot each active compound added to the meat samples was based on results obtained in a previous experiment. These concentrations represent the minimum inhibitory concentrations (MIC) of the active compounds required to be present in artificial culture media in order to reduce by 1 log the number of bacteria in culture. Six pathogenic and spoilage bacteria, commonly found in meat and meat products, were tested. […] The concentration used for carnosine (1.0%) was selected from the literature (Sebranek, 1999). The concentrations of BHA (0.01%), BHT (0.01%), EDTA (100 ppm), and tetrasodium pyrophosphate (0.1%) corresponded to the concentrations recommended by the Canadian Food Inspection Agency (CFIA).
This value was detennined by testing six pathogenic and spoilage bacteria, commonly found in meat and meat products.

[8] = ground beef, air, 4° C., lower concentration: thymol 0.1%, tannic acid 0.38%, rosemary 0.5%, BHT 0.01%, trans-cinnamaldehyde […], carvacrol […], thyme 0.2%, BHA 0.01%, nisin 625 UI/g, EDTA 100 ppm, tetrasodium pyrophosphate 0.1%, carnosine 1.0%, ascorbic acid 0.5%
[9] = vs control, negative = protective effect, ground beef, air, 4° C., thymol 0.1%, tannic acid 0.38%, rosemary 0.5%, BHT 0.01%, trans-cinnamaldehyde […], carvacrol […], thyme 0.2%, BHA 0.01%, nisin 625 UI/g, EDTA 100 ppm, tetrasodium pyrophosphate 0.1%, carnosine 1.0%, ascorbic acid 0.5%
[10] = ground beef, air, 4° C., lower concentration: tannic acid 0.38%, nisin 625 UI/g, EDTA 100 ppm, carvacrol […], tetrasodium pyrophosphate 0.1%, trans-cinnamaldehyde […], thymol 0.1%, thyme 0.2%, BHT 0.01%, BHA 0.01%, rosemary 0.5%, carnosine 1.0%, ascorbic acid 0.5%
[11] = vs control, ground beef, air, 4° C., tannic acid 0.38%, nisin 625 UI/g, EDTA 100 ppm, carvacrol […], tetrasodium pyrophosphate 0.1%, trans-cinnamaldehyde […], thymol 0.1%, thyme 0.2%, BHT 0.01%, BHA 0.01%, rosemary 0.5%, carnosine 1.0%, ascorbic acid 0.5%

Row | Compound | D10 (%): minimal concentration of active compound required to reduce E. coli population by 1 log in ground beef (E. coli [3]) | D10 (%): minimal concentration of active compound required to reduce S. typhi population by 1 log in ground beef (S. typhi [4]) | D10(kGy) (E. coli [5]; [8]) | Increase in Sensitivity (E. coli [5]; [9]) | D10(kGy) (S. typhi [6]; [10]) | Increase in Sensitivity (S. typhi [6]; [11]) | also measured
1 | O=P([O-])([O-])OP(=O)([O-])[O-].[Na+].[Na+].[Na+].[Na+] [Tetrasodium pyrophosphate, tetrasodium pyrophosphate] |  |  |  |  |  |  | D10(kGy) (S. typhi [1]; chicken breast, 4° C., trans-cinnamaldehyde 0.030%, tetrasodium pyrophosphate 0.003%, carvacrol 0.038%, thymol […]): 0.520 ± 0.030^b kGy; factor by which the effect was reduced in the chicken breast (S. typhi [1]; concentration of 1/30 of the MIC value in ground beef, compared with ground beef at MIC): 1.5; irradiation dose necessary to completely eliminate S. typhi from the chicken breast (S. typhi [1]; trans-cinnamaldehyde 0.030%, tetrasodium pyrophosphate 0.003%, carvacrol 0.038%, thymol […]): 2.6 kGy; Increase in Sensitivity (S. typhi [1]; vs control, chicken breast, trans-cinnamaldehyde 0.030%, tetrasodium pyrophosphate 0.003%, carvacrol 0.038%, thymol […]): 19.1%; D10(kGy) (E. coli [2]; chicken breast, 4° C.): 0.141 ± 0.012^bc kGy; irradiation dose necessary to completely eliminate E. coli from the chicken breast (E. coli [2]): 0.75 kGy; Increase in Sensitivity (E. coli [2]; vs control, chicken breast): 2.7%
2 | O=C(OC[C@H]1O[C@@H](OC(=O)c2cc(O)c(O)c(OC(=O)c3cc(O)c(O)c(O)c3)c2)[C@H](OC(=O)c2cc(O)c(O)c(OC(=O)c3cc(O)c(O)c(O)c3)c2)[C@@H](OC(=O)c2cc(O)c(O)c(OC(=O)c3cc(O)c(O)c(O)c3)c2)[C@@H]1OC(=O)c1cc(O)c(O)c(OC(=O)c2cc(O)c(O)c(O)c2)c1)c1cc(O)c(O)c(OC(=O)c2cc(O)c(O)c(O)c2)c1 [Tannic acid, tannic acid] | 11.15 ± 2.04^c % | 21.18 ± 2.07^d % |  |  |  |  | 
3 | COc1ccc(O)c(C(C)(C)C)c1 [BHA, butylated hydroxyanisole] |  |  | 0.117 ± 0.0026^ef kGy | 7.1% | 0.407 ± 0.0123^h kGy | 22.6% | 
4 | O=C1O[C@H]([C@@H](O)CO)C(O)=C1O [Ascorbic acid] | 2.71 ± 0.26^b % | 1.83 ± 0.06^ab % |  |  |  |  | Mean values of MIC (concentration required in artificial culture media to reduce by 1 log the number of bacteria) [7]: 0.5%
5 | nisin |  |  | 0.120 ± 0.0089^efg kGy | 4.8% | 0.420 ± 0.0040^hi kGy | 20.2% | 
6 | O=C(O)CN(CCN(CC(=O)O)CC(=O)O)CC(=O)O [EDTA] |  |  |  |  |  |  | D10(kGy) (E. coli [5]): 0.127 ± 0.0033^gh kGy; Increase in Sensitivity (E. coli [5]): −0.8%; D10(kGy) (S. typhi [6]): 0.419 ± 0.0198^hi kGy; Increase in Sensitivity (S. typhi [6]): 20.3%
